In patent US12011476B2, “Treatments of oxidative stress conditions” (The University of Vermont and State Agricultural College, priority 2012, dated 2024):

Key:
Type in all cases: cell-based, murine
caspase 8 = assay: Caspase-Glo 8 assay after FasL stimulation; conditions: FasL-stimulated cells, compared to the respective control
Protocol: (§1) Exposure of cells to FasL: C10 cells were treated with 150 ng/ml FLAG-FasL (Alexis, San Diego, CA), plus 0.5 micrograms/ml anti-FLAG cross linking antibody, M2 (Sigma, St. Louis, MO). Primary lung fibroblasts and MTECs were treated with 300 ng/ml FasL, plus 1 microgram/ml M2. As reagent controls, cells were treated with M2 alone.
(§2) Caspase-Glo assay: Caspase-8 and caspase-3 activities were measured using a Caspase-Glo 8 and Caspase-Glo 3/7 (Promega, Madison, WI) reagents, respectively according to the manufacturer's protocol (Promega, Madison, WI). Results were expressed in Relative Luminescence Units (RLU), after subtraction of background luminescence values. All results were obtained from 3 independent experiments conducted in triplicate.

GSTP = molecular target: T1, GSTP (Mus musculus, UniProt P19157); assay: GST activity assay (CDNB-GST) in treated cells; conditions: cells incubated with 50 micromolar for 2 hours, vs 0.2% DMSO, FIG. 5F
T1 construct: endogenous in cells; host or cells: murine lung epithelial cells (C10)
Protocol: GST activity assay: The GST activity was determined using a colorimetric activity assay kit (ab65326, Abcam, Cambridge, MA) based on the GST-catalyzed reaction between GSH and the GST substrate, CDNB (1-chloro-2,4-dinitrobenzene). The GST-catalyzed formation of CDNB-GSH produced a dinitrophenyl thioether which can be detected spectrophotometrically at 340 nm.
(§3) The results are expressed as nmol of CDNB […]/min/mg protein. * p<0.05 (Student t-test) compared to DMSO controls. […] Cells were pre-incubated TLK-199 or DMSO for 2 hours, prior to stimulation with FasL. Lysates were processed as in FIG. 1A. Inhibition of GSTP decreased the activities of caspases 8 (FIG. 5H) and 3 (FIG. 5I) induced by FasL. * p<0.05 ANOVA, compared to DMSO controls. […] Mus: muscimol control. * p<0.05 ANOVA, compared to TNF-alpha+CHX controls.

Fas-SSG [1] = assay: Immunoprecipitation of S-glutathionylated Fas (Fas-SSG) after FasL stimulation; conditions: FasL-stimulated cells, compared to the respective control (muscimol, DMSO, control siRNA)
Protocol: as §1
Immunoprecipitation of S-glutathionylated Fas: Immunoprecipitation of S-glutathionylated Fas was performed using established techniques.
C10 lung epithelial cells were stimulated with Flag tagged FasL plus anti-Flag (M2) crosslinking antibody, M2 alone (0), and at the indicated times, lysates were prepared and immunoprecipitated (IP) using an anti-GSH antibody. The subsequent western blot was probed with anti-Fas antibody (top panel). The +DTT control reflects lysates prepared from FasL-stimulated cells at 120 min treated with 25 mM DTT prior to IP with the anti-GSH antibody. Bottom panels: Content of Fas and Grx1 in whole cell lysates (WCL). […] C10 lung epithelial cells were stimulated with FasL plus M2 crosslinking antibody, or M2 alone, and at the indicated times, supernatants were collected. Free GSH was measured. * p<0.05 (ANOVA), compared to M2 controls at the same time points.

caspase 3 = assay: Caspase-Glo 3/7 assay after FasL stimulation; conditions: FasL-stimulated cells, compared to the respective control
Protocol: as §1, §2

caspase-3 = assay: TNF-alpha plus cycloheximide (CHX) induced caspase-3 activation; conditions: pre-incubation before TNF-alpha in the presence of cycloheximide, FIG. 5J
Protocol: as §2
In addition to Fas, the extracellular/ligand binding domains of other members of the TNF receptor superfamily also contained cysteines that form intra-molecular disulfide bridges (—S—S—) to create the ligand binding domain. These experiments therefore determined whether ERp57-mediated oxidative processing regulates TNFR-dependent apoptosis. Cells were incubated with the ERp57 inhibitor, thiomuscimol prior to stimulation with TNF-alpha in the presence of cycloheximide (CHX) to induce apoptosis.
as §3

ERp57 = assay: Protein disulfide isomerase (PDI) assay, insulin reduction, lysates of treated cells
Protocol: Protein disulfide isomerase (PDI) assay: 10 micrograms of total cell lysates were incubated with folded insulin, fibril protein binding dye for 1 hr. The fluorescence was then measured in a microplate reader set at a excitation of 500 nm and an emission of 603 nm, per the manufacturer's protocol (Proteostat™ PDI assay kit ENZ-51024-KP002). All results were obtained from 3 independent experiments conducted in triplicate.
Pharmacologic inhibition of ERp57 and GSTP1 decreased Fas-SSG and caspase activation: next, the contribution of the catalytic activities of ERp57 and GSTP in mediating S-glutathionylation of Fas, and subsequent activation of caspases, was asessed.
The results are expressed as relative fluorescence units (RFU). * p<0.05 (Student t-test) compared to muscimol treated cells. […] Cell lysates were processed as in FIG. 1A to determine Fas-SSG (FIGS. 5D and 5E). Inhibition of ERp57 decreased caspase 8, and caspase 3 activities. * p<0.05 ANOVA, compared to muscimol-treated cells.

Fas-SSG [2] = assay: Cell fractionation and IP of Fas-SSG (ER vs cytosol/pm); conditions: FasL-stimulated cells, vs DMSO vehicle control, FIG. 3D
Protocol: Cell Fractionation: Cell fractionation was carried out using the Calbiochem ProteoExtractTR (Cat. No. 539790) subcellular proteome extraction kit per the manufacturer's protocol.
Proteins from each fraction were subjected to IP using anti-GSH antibody. Western blots were probed for Fas. 25 micrograms of total protein from each fractions were separated on a SDS-PAGE and probed for Fas, ERp57, GSTP1, Prx1 (cytosolic protein), Flotillinl (Flot1, plasma membrane protein), calreticulin (CRT, an ER restricted protein), histone H3 (nuclear marker). […] Cells were treated with FasL, stained with ERp57, Fas, and the nuclear marker, DAPI. Merged images indicate co-localization of Fas and ERp57. […] Proteins from fractions characterized in FIG. 3A were subjected to IP using anti-GSTP1 antibodies, or control IgG. […] Epithelial cells were treated with FasL, in the presence or absence of Brefeldin A. Cells were fractionated as in FIG. 3A, and proteins from each fraction were subjected to IP using anti-GSH antibody. Western blots were probed for Fas. 25 micrograms of total protein from each fraction was separated on a SDS-PAGE and probed for Fas, ERp57, GSTP1, Prx1 (cytosol), Flot1 (plasma membrane), CRT (ER), H3 (nucleus).

Fas-SH = assay: Labeling of free sulfhydryls of Fas (Fas-SH) with MPB, oxidative processing; conditions: FasL-stimulated cells
Protocol: Microscopy: Cells were fixed in 4% formalin and permeabilizied with 0.2% Triton-X100 in PBS. Permeabilized cells were blocked in PBS containing 2% BSA for 1 hour. Cells were sequentially incubated with primary antibodies (1:500-rabbit anti-ERp57/mouse anti-Fas) and secondary antibodies (1:1000-anti-rabbit-Alexa Fluor 488/anti-mouse Alexa Fluor 647). The nucleus was stained with DAPI (1:4000). Images were acquired using a Zeiss LSM 510 META Confocal Laser Scanning Imaging System. Images were captured at 40× magnification in oil immersion. The image files were converted to Tiff format. Brightness and contrast were adjusted equally in all images. Labeling of free sulfhydryls using biotinylated N-ethyl maleimide (MPB): Cells were lysed in HEPES buffer, pH 7.4 containing 0.5% NP40, with 150 micromolar MPB for 1 hour at ambient temperature. Lysates were centrifuged at 14,000 rpm and passed through a microbiospin (Bio-Rad) column to separate free MPB. The eluent whole cell lysate was immunoprecipitated using an anti-Fas antibody and sequentially probed using streptavidin HRP and anti-Fas antibody.
The transmembrane domain is underlined. ELD; extracellular ligand binding domain, CDD; Cytoplasmic Death Domain. […] C10 lung epithelial cells were treated with FasL. The lysates were labeled with MPB, and IPed using an anti-Fas antibody. […]

C10 cells = assay: Cell viability assay (MTT) after FasL stimulation; conditions: MTT assay after stimulation with FasL
Protocol: Cell viability assay: C10 cells or primary lung fibroblasts were plated in 12-well dishes. The MTT (3-(4,5-dimethylthiazol-2-yl)-2,5-diphenyltetrazolium bromide) assay was performed using known techniques. Results were obtained from 3 independent experiments conducted in triplicate.
Cells were exposed to FasL, and cell lysates processed as in FIG. 1A. Western blots from WCL were sequentially probed for Fas, ERp57 and GSTP1. […] Cells were treated with FasL, and lysates processed as in FIG. 2B. […] Cells were transfected with ERp57 and GSTP1 siRNA (E+P), and 24 hours later were exposed to FasL+M2 crosslinking antibody (FL), or M2 alone for 30 min. Cell lysates were subjected to IP of the DISC. Western blots were sequentially probed for Fas, FADD, procaspase 8, ERp57 and GSTP1. WCL: assessment of the same proteins in whole cell lysates, as a control.

T1 sequence (P19157 2-210): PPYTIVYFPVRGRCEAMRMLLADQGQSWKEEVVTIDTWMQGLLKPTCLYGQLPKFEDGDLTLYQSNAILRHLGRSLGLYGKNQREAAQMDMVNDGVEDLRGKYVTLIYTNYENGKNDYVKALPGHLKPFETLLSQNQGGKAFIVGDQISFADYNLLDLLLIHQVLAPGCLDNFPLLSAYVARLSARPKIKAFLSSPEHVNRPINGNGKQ

SMILES	caspase 8 activity in response to FasL (caspase 8)	Fas-SSG in response to FasL (Fas-SSG [1])	caspase 3 activity in response to FasL (caspase 3)	TNF-alpha/CHX-mediated activation of caspase-3 (caspase-3)	also measured
CCOC(=O)[C@@H](N)CCC(=O)N[C@@H](CSCc1ccccc1)C(=O)N[C@@H](C(=O)OCC)c1ccccc1 [TLK199, gamma-glutamyl-S-(benzyl)cysteinyl-R-phenyl glycine diethyl ester]	diminished	diminished	diminished	–	decrease in GSTP activity (GSTP): 80%
CC1(C)CC(=O)CC(=O)C1 [dimedone, 5,5-dimethyl-1,3-cyclohexanedione]	–	abolished	–	–	–
NCc1cc(O)ns1 [thiomuscimol, 5-aminomethyl-3-isothiazolol]	corresponding decreases	significantly attenuated	corresponding decreases	significantly decreased	inhibition of ERp57, as measured by RFU (ERp57; FIG. 10, THM vs DMSO, lysates incubated with Bacitracin for 2 hrs as positive control): exhibited inhibition of ERp57; decrease in insulin reducing activity (ERp57; epithelial cells incubated with thiomuscimol (10 micromolar), compared to muscimol controls, FIG. 5A): ~50%
NCc1cc(=O)[nH]o1 [muscimol]	–	–	–	did not affect apoptosis	–
C[C@H]1CCC/C=C/[C@@H]2C[C@H](O)C[C@H]2[C@H](O)/C=C/C(=O)O1 [Brefeldin A]	–	–	–	–	movement of Fas-SSG from ER to cytosol/pm (Fas-SSG [2]): Fas-SSG remained restricted to the ER fraction
CC(=O)OCOC(=O)CN(CC(=O)OCOC(C)=O)c1ccccc1OCCOc1ccccc1N(CC(=O)OCOC(C)=O)CC(=O)OCOC(C)=O [BAPTA-AM]	decreased	substantially diminished	decreased	–	Fas-SH content (oxidative processing of Fas) after FasL (Fas-SH): completely prevented the loss of Fas-SH groups; cell survival / cell death in response to FasL (C10 cells): increased cell survival
